Data on four molecules can be found in patent publication US20210236541A1, “IODOPHOR COMPOSITION WITH IMPROVED STABILITY IN THE PRESENCE OF ORGANIC MATERIAL” (priority 2014, published 2021).

Common to all, as to type: cell-based
Test [1] has as its system E. coli ATCC 25922. Briefly: Nebulisation simulation, kill efficiency on inoculated bandage. The following applies: for performance of the novel iodophor relative to the labelled antibiotic: nebulised, 15 minutes, Levofloxacin and Polymyxin B at all concentrations, Gentamycin 0.1 mg and 1 mg.
For test [2], the system named is E. coli ATCC 25922. Briefly: MIC micro-broth dilution. (In general: Dilution methods test growth across graded concentrations, often in twofold steps.)
For a further test, the system named is bacterial cells.
The next test has as its system P. aeruginosa. Briefly: Nebulisation simulation, kill efficiency on inoculated bandage. As to conditions: 1 mL nebulised, 15 minutes exposure, FIG. 6.

Turning to Polymyxin B, in the test on E. coli ATCC 25922 [1], the “performance of the novel iodophor relative to the labelled antibiotic” value was “equivalent performance”.
Usually MIC stands for the least concentration at which growth counts as inhibited. Lower therefore signals a more susceptible organism. For polyvinylpyrrolidone iodine [PVP-I], the MIC in the test on E. coli ATCC 25922 [2] (in lysogeny broth (LB), text of b30) worked out at 500 µg/mL. Besides, the “minimum inhibitory concentration (MIC)” value in the test with E. coli ATCC 25922 [2] (in water) is < 1 µg/mL. Further, in the test on E. coli ATCC 25922 [2] (organic rich growth medium (such as lysogeny broth)), the MBC value was > 500 µg/mL.
As for `OO` [Hydrogen peroxide], the “recovery of viable bacterial cells” value in the test with bacterial cells was “recovery of viable cells”. In addition, the killing efficiency result with E. coli ATCC 25922 [1] (1 mL nebulised, 15 minutes exposure, FIG. 5) was “limited killing efficiency”; with P. aeruginosa, “limited killing efficiency”.
Turning to Gentamycin, the “performance of the novel iodophor relative to the labelled antibiotic” value with E. coli ATCC 25922 [1] is recorded as “superior”.
